Test results reported in patent US20260297080A1, “BICYCLIC COMPOUNDS AS CDK INHIBITORS” (BeOne Medicines I GmbH, priority 2022, published 2026).

Tests used:
CDK2/Cyclin E1 = CDK2/Cyclin E1 (Homo sapiens, UniProt P24941); assay: CDK2/Cyclin E1 Biochemical Assay (TR-FRET), 0.060 mM ATP; details: 0.15 μM Rb (Ser780)-biotin substrate, pH7.0, 60 min preincubation, 120 min reaction, room temperature
Procedure, shortened: (§1)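 Inhibitor concentrations up to 10 μM were preincubated with each cyclin–kinase complex for 60 minutes before ATP and biotinylated Rb (Ser780) substrate (0.15 μM) were added. After 120 minutes at room temperature, phosphorylation was quantified by HTRF and IC50 values were fitted with a four-parameter logistic equation.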

CDK1/Cyclin B1 = CDK1/Cyclin B1 (Homo sapiens, UniProt P06493); assay: CDK1/Cyclin B1 Biochemical Assay (TR-FRET), 0.015 mM ATP; details: 0.15 μM Rb (Ser780)-biotin substrate, pH7.0, 60 min preincubation, 120 min reaction, room temperature
Procedure, shortened: as §1

CDK1/Cyclin B1, sequence (P06493 whole entry): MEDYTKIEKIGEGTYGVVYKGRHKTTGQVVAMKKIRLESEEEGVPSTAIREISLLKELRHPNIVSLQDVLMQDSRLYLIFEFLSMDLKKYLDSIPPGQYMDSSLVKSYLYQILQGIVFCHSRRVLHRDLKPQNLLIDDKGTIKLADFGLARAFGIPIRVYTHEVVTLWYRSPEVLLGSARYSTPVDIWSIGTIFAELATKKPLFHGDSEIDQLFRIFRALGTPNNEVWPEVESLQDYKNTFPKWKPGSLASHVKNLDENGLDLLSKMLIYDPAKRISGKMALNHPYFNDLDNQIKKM
CDK1/Cyclin B1, sequence (P14635 whole entry partner): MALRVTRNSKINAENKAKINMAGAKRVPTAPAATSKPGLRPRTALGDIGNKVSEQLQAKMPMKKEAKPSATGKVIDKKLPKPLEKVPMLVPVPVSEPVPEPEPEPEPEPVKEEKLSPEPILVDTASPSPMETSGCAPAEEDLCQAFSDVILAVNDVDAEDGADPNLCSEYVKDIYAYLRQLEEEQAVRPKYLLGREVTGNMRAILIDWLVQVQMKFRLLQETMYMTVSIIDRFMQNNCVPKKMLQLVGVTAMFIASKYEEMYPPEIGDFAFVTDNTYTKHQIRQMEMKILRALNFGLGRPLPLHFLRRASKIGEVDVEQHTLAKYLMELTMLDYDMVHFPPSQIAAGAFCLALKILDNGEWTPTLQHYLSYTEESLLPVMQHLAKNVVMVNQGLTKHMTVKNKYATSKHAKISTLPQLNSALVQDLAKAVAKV

Compound | IC50 (CDK2/Cyclin E1) | IC50 (CDK1/Cyclin B1)
CN1Cc2c(ccc(Nc3cc([C@@H]4CC[C@H](OC(=O)NCC(C)(C)O)C4)[nH]n3)c2F)S1(=O)=O (relative stereo) [Example 168, cis-3-(3-((4-fluoro-2-methyl-1,1-dioxido-2,3-dihydrobenzo[d]isothiazol-5-yl)amino)-1H-pyrazol-5-yl)cyclopentyl(2-hydroxy-2-methylpropyl)carbamate] | 12 nM | 545 nM
CN1Cc2c(ccc(Nc3cc([C@@H]4CC[C@H](OC(=O)N[C@H]5CC[C@@](C)(O)CC5)C4)[nH]n3)c2F)S1(=O)=O (relative stereo) [Example 169, cis-3-(3-((4-fluoro-2-methyl-1,1-dioxido-2,3-dihydrobenzo[d]isothiazol-5-yl)amino)-1H-pyrazol-5-yl)cyclopentyl((1s,4s)-4-hydroxy-4-methylcyclohexyl)carbamate] | 7.4 nM | 471 nM
C[C@H]1[C@H](O)CN1C(=O)O[C@H]1CC[C@@H](c2cc(Nc3ccc4c(c3F)CN(C)S4(=O)=O)n[nH]2)C1 (relative stereo) [Example 170, cis-3-(3-((4-fluoro-2-methyl-1,1-dioxido-2,3-dihydrobenzo[d]isothiazol-5-yl)amino)-1H-pyrazol-5-yl)cyclopentyl(2S,3R)-3-hydroxy-2-methylazetidine-1-carboxylate] | 23 nM | 407 nM
CC(C)NC(=O)O[C@H]1CC[C@@H](c2cc(Nc3ccc4c(c3)CC(=O)NS4(=O)=O)n[nH]2)C1 (relative stereo) [Example 171, cis-3-(3-((1,1-dioxido-3-oxo-3,4-dihydro-2H-benzo[e][1,2]thiazin-6-yl)amino)-1H-pyrazol-5-yl)cyclopentyl isopropylcarbamate] | 10 nM | 183 nM
O=C(O[C@H]1CC[C@@H](c2cc(Nc3ccc4c(c3)CNS4(=O)=O)n[nH]2)C1)N1CCCC1 (relative stereo) [Example 174, cis-3-(3-((1,1-dioxido-2,3-dihydrobenzo[d]isothiazol-5-yl)amino)-1H-pyrazol-5-yl)cyclopentyl pyrrolidine-1-carboxylate] | 6.5 nM | 136 nM
O=C(O[C@H]1CC[C@@H](c2cc(Nc3ccc4c(c3)CNS4(=O)=O)n[nH]2)C1)N1CCC(O)C1 (relative stereo) [Example 175, cis-3-(3-((1,1-dioxido-2,3-dihydrobenzo[d]isothiazol-5-yl)amino)-1H-pyrazol-5-yl)cyclopentyl 3-hydroxypyrrolidine-1-carboxylate] | 10 nM | 359 nM
CC1(O)CCN(C(=O)O[C@H]2CC[C@@H](c3cc(Nc4ccc5c(c4)CNS5(=O)=O)n[nH]3)C2)C1 (relative stereo) [Example 176, cis-3-(3-((1,1-dioxido-2,3-dihydrobenzo[d]isothiazol-5-yl)amino)-1H-pyrazol-5-yl)cyclopentyl 3-hydroxy-3-methylpyrrolidine-1-carboxylate] | 8 nM | 230 nM
COc1c(Nc2cc([C@@H]3CC[C@H](OC(=O)NC(C)C)C3)[nH]n2)ccc2c1S(=O)(=O)NC2 (relative stereo) [Example 180, cis-3-(3-((7-methoxy-1,1-dioxido-2,3-dihydrobenzo[d]isothiazol-6-yl)amino)-1H-pyrazol-5-yl)cyclopentyl isopropylcarbamate] | 2.9 nM | 102 nM
COc1c(Nc2cc([C@@H]3CC[C@H](OC(=O)NC(C)C)C3)[nH]n2)ccc2c1S(=O)(=O)NC2(C)C (relative stereo) [Example 181, cis-3-(3-((7-methoxy-3,3-dimethyl-1,1-dioxido-2,3-dihydrobenzo[d]isothiazol-6-yl)amino)-1H-pyrazol-5-yl)cyclopentyl isopropylcarbamate] | 58 nM | 1250 nM
COc1cc2c(cc1Nc1cc([C@@H]3CC[C@H](OC(=O)NC(C)C)C3)[nH]n1)S(=O)(=O)NC2 (relative stereo) [Example 182, cis-3-(3-((5-methoxy-1,1-dioxido-2,3-dihydrobenzo[d]isothiazol-6-yl)amino)-1H-pyrazol-5-yl)cyclopentyl isopropylcarbamate] | 279 nM | 5580 nM
COc1cc2c(cc1Nc1cc([C@@H]3CC[C@H](OC(=O)NC(C)C)C3)[nH]n1)S(=O)(=O)NC2(C)C (relative stereo) [Example 183, cis-3-(3-((5-methoxy-3,3-dimethyl-1,1-dioxido-2,3-dihydrobenzo[d]isothiazol-6-yl)amino)-1H-pyrazol-5-yl)cyclopentyl isopropylcarbamate] | 1390 nM | 7570 nM
Cc1cc2c(cc1Nc1cc([C@@H]3CC[C@H](OC(=O)NC(C)C)C3)[nH]n1)S(=O)(=O)NC2 (relative stereo) [Example 185, cis-3-(3-((5-methyl-1,1-dioxido-2,3-dihydrobenzo[d]isothiazol-6-yl)amino)-1H-pyrazol-5-yl)cyclopentyl isopropylcarbamate] | 239 nM | 1420 nM
CC(C)NC(=O)O[C@H]1CC[C@@H](c2cc(Nc3ccc4c(c3F)S(=O)(=O)N(C)C4)n[nH]2)C1 (relative stereo) [Example 190, cis-3-(3-((7-fluoro-2-methyl-1,1-dioxido-2,3-dihydrobenzo[d]isothiazol-6-yl)amino)-1H-pyrazol-5-yl)cyclopentyl isopropylcarbamate] | 8.1 nM | 328 nM
COCCN1Cc2ccc(Nc3cc([C@@H]4CC[C@H](OC(=O)NC(C)C)C4)[nH]n3)c(F)c2S1(=O)=O (relative stereo) [Example 191, cis-3-(3-((7-fluoro-2-(2-methoxyethyl)-1,1-dioxido-2,3-dihydrobenzo[d]isothiazol-6-yl)amino)-1H-pyrazol-5-yl)cyclopentyl isopropylcarbamate] | 9.3 nM | 191 nM
CC(C)NC(=O)O[C@H]1CC[C@@H](c2cc(Nc3ccc4c(c3F)S(=O)(=O)N(CCO)C4)n[nH]2)C1 (relative stereo) [Example 192, cis-3-(3-((7-fluoro-2-(2-hydroxyethyl)-1,1-dioxido-2,3-dihydrobenzo[d]isothiazol-6-yl)amino)-1H-pyrazol-5-yl)cyclopentyl isopropylcarbamate] | 6 nM | 116 nM

Compounds with a lower IC50 (CDK2/Cyclin E1), results first:

IC50 (CDK2/Cyclin E1) | IC50 (CDK1/Cyclin B1) | Compound
1.5 nM | 41 nM | CCCNC(=O)O[C@H]1CC[C@@H](c2cc(Nc3ccc4c(c3)CNS4(=O)=O)n[nH]2)C1 (relative stereo) [Example 178, cis-3-(3-((1,1-dioxido-2,3-dihydrobenzo[d]isothiazol-5-yl)amino)-1H-pyrazol-5-yl)cyclopentyl propylcarbamate]
1.5 nM | 4.1 nM | CC(C)NC(=O)O[C@H]1CC[C@@H](c2cc(Nc3cc(Cl)c4c(c3)S(=O)(=O)NC4)n[nH]2)C1 (relative stereo) [Example 184, cis-3-(3-((4-chloro-1,1-dioxido-2,3-dihydrobenzo[d]isothiazol-6-yl)amino)-1H-pyrazol-5-yl)cyclopentyl isopropylcarbamate]
1.3 nM | 49 nM | CC(CC(F)(F)F)NC(=O)O[C@H]1CC[C@@H](c2cc(Nc3ccc4c(c3F)CNS4(=O)=O)n[nH]2)C1 (relative stereo) [Example 165, cis-3-(3-((4-fluoro-1,1-dioxido-2,3-dihydrobenzo[d]isothiazol-5-yl)amino)-1H-pyrazol-5-yl)cyclopentyl(4,4,4-trifluorobutan-2-yl)carbamate]
1.1 nM | 27 nM | CC1(NC(=O)O[C@H]2CC[C@@H](c3cc(Nc4ccc5c(c4)CNS5(=O)=O)n[nH]3)C2)CC1 (relative stereo) [Example 177, cis-3-(3-((1,1-dioxido-2,3-dihydrobenzo[d]isothiazol-5-yl)amino)-1H-pyrazol-5-yl)cyclopentyl(1-methylcyclopropyl)carbamate]
0.8 nM | 18 nM | CC1(NC(=O)O[C@H]2CC[C@@H](c3cc(Nc4ccc5c(c4F)CNS5(=O)=O)n[nH]3)C2)CCC1 (relative stereo) [Example 163, cis-3-(3-((4-fluoro-1,1-dioxido-2,3-dihydrobenzo[d]isothiazol-5-yl)amino)-1H-pyrazol-5-yl)cyclopentyl(1-methylcyclobutyl)carbamate]
0.8 nM | 29 nM | CC[C@H](C)NC(=O)O[C@H]1CC[C@@H](c2cc(Nc3ccc4c(c3F)S(=O)(=O)NC4)n[nH]2)C1 (relative stereo) [Example 188, cis-3-(3-((7-fluoro-1,1-dioxido-2,3-dihydrobenzo[d]isothiazol-6-yl)amino)-1H-pyrazol-5-yl)cyclopentyl((S)-sec-butyl)carbamate]
0.7 nM | 14 nM | CC(C)NC(=O)O[C@H]1CC[C@@H](c2cc(Nc3ccc4c(c3)CCNS4(=O)=O)n[nH]2)C1 (relative stereo) [Example 172, cis-3-(3-((1,1-dioxido-3,4-dihydro-2H-benzo[e][1,2]thiazin-6-yl)amino)-1H-pyrazol-5-yl)cyclopentyl isopropylcarbamate]
0.7 nM | 14 nM | CC1(NC(=O)O[C@H]2CC[C@@H](c3cc(Nc4ccc5c(c4F)S(=O)(=O)NC5)n[nH]3)C2)CC1 (relative stereo) [Example 187, cis-3-(3-((7-fluoro-1,1-dioxido-2,3-dihydrobenzo[d]isothiazol-6-yl)amino)-1H-pyrazol-5-yl)cyclopentyl(1-methylcyclopropyl)carbamate]
0.3 nM | 5.5 nM | CC(C)NC(=O)O[C@H]1CC[C@@H](c2cc(Nc3cc(F)c4c(c3)S(=O)(=O)NC4)n[nH]2)C1 (relative stereo) [Example 179, cis-3-(3-((4-fluoro-1,1-dioxido-2,3-dihydrobenzo[d]isothiazol-6-yl)amino)-1H-pyrazol-5-yl)cyclopentyl isopropylcarbamate]
